Measurements from PubChem BioAssay (NCI).
Values joined by “and” are separate entries in the source; they are usually repeats but may differ in a detail not shown here. Equal values may be shown once.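 Method: 48-hour compound exposure of cells in 96-well plates, five concentrations, linear interpolation of endpoints. At the GI50, growth is halved. TGI marks complete inhibition of growth.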

How the values were obtained:
Experiment in all cases: NCI tumour cell line growth inhibition, 48 h
MDA-MB-231 breast = test system: MDA-MB-231 breast
RXF 393 renal = test system: RXF 393 renal
IGROV1 ovarian = test system: IGROV1 ovarian
BT-549 breast = test system: BT-549 breast
HS 578T breast = test system: HS 578T breast
MDA-MB-435 = test system: MDA-MB-435

| SMILES | GI50 (MDA-MB-231 breast) | TGI (MDA-MB-231 breast) | GI50 (RXF 393 renal) | TGI (RXF 393 renal) | TGI (IGROV1 ovarian) | TGI (BT-549 breast) | TGI (HS 578T breast) | TGI (MDA-MB-435) | GI50 (IGROV1 ovarian) | GI50 (BT-549 breast) | GI50 (HS 578T breast) | GI50 (MDA-MB-435) |
| --- | --- | --- | --- | --- | --- | --- | --- | --- | --- | --- | --- | --- |
| Nc1ncn([C@@H]2O[C@H](CO)[C@@H](O)[C@H]2O)c(=O)n1 | 1.61 µM | > 100 µM | 0.346 µM | 4.64 µM |  |  |  |  |  |  |  |  |
| C=CCC1(c2ccc(OC)cc2)C=CC(=O)CC1 (stereo unspecified) |  | > 100 µM |  | > 100 µM | > 100 µM | > 100 µM | > 100 µM | > 100 µM |  |  |  |  |
| COc1cc(N(CCC#N)CCC#N)ccc1/C(N=Nc1ccc(Cl)cc1)=N/NC(=O)c1cc(Br)ccc1O | 38.8 µg/mL | > 150 µg/mL | 36.9 µg/mL | > 150 µg/mL | > 150 µg/mL | > 150 µg/mL | > 150 µg/mL | > 150 µg/mL | 54.5 µg/mL | 140 µg/mL | 125 µg/mL | > 150 µg/mL |
| CNCCOC(=O)/C=C1\CC[C@H]2[C@@H]([C@@H](O)C(=O)[C@@H]3[C@]2(C)CC[C@H](O)[C@]3(C)C(=O)OC)[C@H]1C | 1.77 µM | 5.91 µM | 0.205 µM | 0.579 µM | 2.23 µM | 1.09 µM | 2.06 µM | 1.45 µM | 0.438 µM | 0.286 µM | 0.281 µM | 0.368 µM |
| N#CNC(=NCc1ccccc1)N(Cc1ccccc1)Cc1ccccc1 |  | 85.3 µM |  | > 100 µM | > 31.6 µM | > 100 µM |  | > 100 µM |  |  |  |  |
| CC(=O)ON1CCCC(P(=O)(OCCSC(=O)C(C)(C)C)OCCSC(=O)C(C)(C)C)C1=O (stereo unspecified) | 1.34 µM | 87.8 µM | 0.764 µM | 7.02 µM | 6.27 µM | 7.24 µM | 8.94 µM | 88.6 µM | 0.808 µM | 0.979 µM | 1.53 µM | 3.02 µM |
| COc1cc(Cl)cc(-c2nn(-c3cccc(NC(=O)c4ccc(N5CCOCC5)c(C(F)(F)F)c4)c3)cc2-c2ccncc2)c1 | 2.83 µM | 32.4 µM | 0.83 µM | 23.9 µM | > 100 µM | > 100 µM | > 100 µM | > 100 µM | > 100 µM | 89 µM | 6.48 µM | 43.6 µM |
| NNC(=O)CNc1cccc(Br)c1 |  | > 100 µM |  | > 100 µM | > 100 µM | > 100 µM | > 100 µM | > 100 µM |  |  |  |  |
| N#Cc1nn(-c2cc(=O)[nH]c3ccc(Cl)cc23)c(N)c1C#N | 89.8 µM | > 100 µM |  |  | > 100 µM | > 100 µM | > 100 µM | > 100 µM | > 100 µM | > 100 µM | > 100 µM | > 100 µM |
| CCN1CCN(c2cc(C)c3cc(NC(=O)c4ccc(OC)c(OC)c4)ccc3n2)CC1 | 11.2 µM | > 100 µM | 2.81 µM | > 100 µM | > 100 µM | > 100 µM | > 74.1 µM | 5.56 µM | > 66.3 µM | > 33 µM | 8.55 µM | 0.448 µM |
| Cc1nnc(Nc2ccc(NC(=O)Nc3ccc(Cl)cc3)cc2)c2ccccc12 | 2.38 µM | 5.94 µM | 2.17 µM | 4.13 µM | 19.5 µM | 5.56 µM | 6.4 µM | 3.43 µM | 3.98 µM | 2.21 µM | 2.52 µM | 1.73 µM |
| NC1CCN(Cc2ccccc2)CC1 | > 100 µM | > 100 µM | 8.22 µM | > 100 µM | > 100 µM |  |  | > 100 µM | 94.6 µM |  |  | > 100 µM |
| O=C(/C=C/c1ccc[nH]1)c1ccc(-n2ccc(C(F)(F)F)n2)cc1 | > 100 µM | > 100 µM | 3.61 µM | > 31.2 µM | > 100 µM | 2.5 µM | > 100 µM | > 100 µM | > 100 µM | 0.425 µM | > 100 µM | > 100 µM |
| CCC(C)(C)c1ccc(OCCCCNC(=O)c2ccc3ccccc3c2O)c(C(C)(C)CC)c1 |  | > 100 µM |  |  | > 100 µM | 82.5 µM | > 100 µM |  |  |  |  |  |
| CN1CCN(c2ccc(Nc3cc(-c4cccc(-n5ccc6cc(C7CC7)cc(F)c6c5=O)c4CO)cn(C)c3=O)nc2)CC1 | 2.26 µM | 6.17 µM | 1.9 µM | 5.37 µM | 25.7 µM |  | 25.3 µM | 14 µM | 8.65 µM |  | 4.99 µM | 3.28 µM |
| CCn1c(O)c(/C=N/NC(=O)C(C)c2ccc(CC(C)C)cc2)sc1=S (stereo unspecified) | 0.515 µM | 7.59 µM | 0.222 µM | 0.654 µM | > 36.9 µM | 10.3 µM | > 40.5 µM |  | 0.419 µM | 0.98 µM | 0.294 µM |  |

| SMILES | GI50 (MDA-MB-231 breast) | TGI (MDA-MB-231 breast) | GI50 (RXF 393 renal) | TGI (RXF 393 renal) | TGI (IGROV1 ovarian) | TGI (BT-549 breast) | TGI (HS 578T breast) | TGI (MDA-MB-435) | GI50 (IGROV1 ovarian) | GI50 (BT-549 breast) | GI50 (HS 578T breast) | GI50 (MDA-MB-435) |
| --- | --- | --- | --- | --- | --- | --- | --- | --- | --- | --- | --- | --- |
| CCCC(=O)Nc1cn(COC)c(C(=O)N2C[C@@H]3C[C@]34C2=CC(=O)c2[nH]cc(C)c24)n1 | 19.9 µM | 27 µM and 51.1 µM | 2.21 µM | 16.5 µM and 4.67 µM | 29.5 µM and 10.8 µM | 24.7 µM and 21.7 µM | 44.6 µM and 41.2 µM | 27.4 µM and 27.1 µM | 1.27 µM |  | 12.2 µM | 11.1 µM |
| COc1cc(N=Nc2ccc(O)c3ncccc23)c2ncccc2c1 | 3.16 µM | > 100 µM | 2.72 µM | 28.2 µM | > 100 µM | > 100 µM | > 100 µM | > 100 µM | 3.67 µM | 4.31 µM | 4.67 µM | 4.64 µM |
| O=C(Nc1ccc(Br)cc1F)c1cc(Cl)ccc1O | 0.554 µM | 5.23 µM | 0.852 µM | 3.99 µM | > 100 µM | 2.1 µM | 2.81 µM | 5.88 µM | 0.388 µM | 0.44 µM | 0.327 µM | 0.71 µM |
| COc1cnc2c(c1)C(=O)c1c-2n(CCCNC2=NCCS2)c(=O)c2cc([N+](=O)[O-])ccc12 |  |  |  |  |  | 1.92 µM | 4.54 µM | 2.29 µM |  | 0.0544 µM | 1.82 µM | 0.478 µM |
| C[C@@H]1C[C@@H]([C@@H](CC2CC(=O)NC(=O)C2)OC(=O)CC(=O)c2ccccc2)C(=O)[C@@H](C)C1 | 2.94 µM | 90.5 µM | 0.496 µM | 25.1 µM |  | 66.7 µM | 10.9 µM | > 32.6 µM | 0.62 µM | 2.32 µM | 0.604 µM | 0.463 µM |
| COc1ccc2nc3ccccc3c(NCc3ccc(F)cc3)c2c1 | 1.85 µM | 7.26 µM | 1.13 µM | 3.1 µM | 6.65 µM | 11.4 µM | 12.1 µM | 8.26 µM | 1.8 µM | 4.75 µM | 2.22 µM | 2.14 µM |
| Cc1cc(N[C@@H]2CCC[C@H](Nc3ccnc4cc(Cl)ccc34)C2)nc(N2CCCCCC2)n1 | 1.63 µM | 3.43 µM | 1.55 µM | 3.1 µM |  | 3.75 µM |  | 3.33 µM |  | 1.75 µM |  | 1.79 µM |
| CC(=O)Nc1ccc(-c2csc(Nc3cccc(-c4csc(C)n4)c3)n2)cc1 | 1.28 µM | 5.07 µM | 2.01 µM | > 12.9 µM | > 30.9 µM | 44.6 µM | > 30.4 µM |  | 3.79 µM | 8.34 µM | 3.83 µM | 0.23 µM |
| COc1ccc(-c2nnc3n(C)c(=O)c4ccccc4n23)cc1N | 3.92 µM | > 100 µM | 2.59 µM | > 100 µM | > 100 µM | > 100 µM | > 100 µM | 0.0799 µM | 14.7 µM | > 100 µM | 4.43 µM | 0.0226 µM |
| O=C(Cc1ccc(F)c(Cl)c1)Nc1cc(C2(C(F)(F)F)CC2)nn1CC1CCCCC1 | 2.82 µM | 6.68 µM | 2.37 µM | 10.1 µM | > 15 µM | 14.7 µM | 9.45 µM | 11.7 µM | 4.64 µM | 3.41 µM | 2.13 µM | 3.85 µM |
| CN1C(=O)c2ccccc2NC(=O)C12O[C@@H]2c1ccccc1 (stereo partly specified) |  | > 100 µM |  |  | > 100 µM | > 100 µM | > 100 µM | > 100 µM |  |  |  |  |
| COc1ccc(-c2ccc(=O)oc2C#Cc2cc(OC)c(OC)c(OC)c2)cc1O | 0.905 µM | 10.1 µM | 0.0813 µM | 2.39 µM |  | 99.2 µM | > 100 µM |  |  | 0.275 µM | 0.696 µM |  |
| CC(NCCC(c1ccccc1)c1ccccc1)c1ccccc1 (stereo unspecified) | 2.17 µM | 5.74 µM | 1.46 µM | 3.23 µM | 13.5 µM | 17.6 µM | 23.9 µM | 7.76 µM | 2.89 µM | 5.42 µM | 4.04 µM | 2.54 µM |
| O=C(Nc1cccc(C(F)(F)F)c1)c1ccc(NC2=C(Cl)C(=O)N(Cc3ccc(Cl)cc3Cl)C2=O)cc1 | 12.5 µM | 27.6 µM | 4.76 µM | 28.3 µM | 4.56 µM | 5.71 µM | 8.26 µM | 32.4 µM | 2.01 µM | 2.2 µM | 2.88 µM | 16.1 µM |
| Cc1nc(N)sc1N=Nc1ccccc1Br |  | 67 µM |  | 43.6 µM | 64.4 µM | 46.4 µM |  | 47.9 µM |  |  |  |  |
| NC(N)=N/N=C/c1c(Cl)cccc1Cl |  |  | 15.5 µM | 35.8 µM | > 100 µM | 44.9 µM | 78 µM | 31.1 µM | 31.2 µM | 16 µM | 18 µM | 15.3 µM |
